Measured values reported in patent publication US12383545B1, “Treatment of migraine” (priority 2018, dated 2025).

Columns and labels:
[1] = system: participants with episodic migraine; assay: Study A: adverse events (safety population); type: in vivo, human; conditions: for Deaths, n (%) / TEAE Constipation, n (%) / TEAE Fatigue, n (%) / TEAE Gastroenteritis, n (%) / TEAE Influenza, n (%) / TEAE Nasopharyngitis, n (%) / TEAE Nausea, n (%) / TEAE Sinus Congestion, n (%) / TEAE Sinusitis, n (%) / TEAE Somnolence, n (%) / TEAE Upper Respiratory Tract Infection, n (%) / TEAE Urinary Tract Infection, n (%): Study A, safety population
Procedure: (§1) Adverse events were reported by participants throughout the trial, and at a 4-week follow-up visit. Adverse event information was collected and documented during each clinic visit. Participants could also report adverse events via telephone call between visits. Causality of each adverse event was determined by the investigator who was blinded to the treatment. In addition, clinical laboratory tests, vital signs, electrocardiograms (ECG), and Columbia-Suicide Severity Rating Scale were evaluated. Based on the potential hepatotoxicity of prior gepants, treatment-emergent elevations in ALT or AST ≥3 times the upper limit of normal, as well as potential Hy's law cases, were evaluated as prespecified adverse events of special interest and were reviewed by an independent panel of liver experts blinded to treatment (see, e.g., Negro A et al., CGRP Receptor Antagonists: an expanding drug class for acute migraine? Expert Opin Investig Drugs 2012; 21:807-18; Messina R et al., CGRP—a target for acute therapy in migraine: Clinical Data. Cephalalgia 2019; 39:420-7).
Safety population included all randomized participants who took at least 1 dose of trial treatment. Participants are only counted once within each category. Percentages are calculated at 100×(n/N), where n is the number of participants within a specific category and N is the number of participants in the safety population for the treatment group. Adverse events are listed in decreasing order based on frequency reported in the overall population.

ALT or AST = assay: Study A: postbaseline hepatic laboratory parameters (ALT or AST, potential Hy's Law); type: in vivo, human; conditions: safety population; for ALT or AST >=1 * ULN, n/N1 (%) / ALT or AST >=1.5 * ULN, n/N1 (%) / ALT or AST >=2 * ULN, n/N1 (%) / ALT or AST >=5 * ULN, n/N1 (%) / ALT or AST >=10 * ULN, n/N1 (%) / ALT or AST >=20 * ULN, n/N1: postbaseline
Procedure: as §1
There were no hepatic safety issues identified in this trial. ALT and/or AST increases were low across all atogepant doses and occurred at a lower rate than placebo. […] No cases of liver disease were reported, and no case met the criteria for potential Hy's Law following daily dosing for 12 weeks.

[2] = human, in vivo
Procedure: Data was also evaluated from Study C (described in Example 3) and Study D, a Phase 2b/3 clinical trial evaluating the efficacy, safety, and tolerability of orally administered atogepant. In Study D, after a 28 day baseline period, a total of 652 patients were randomized 1:2:2:2 to receive either atogepant 10 mg (n=94), atogepant 30 mg (n=185), atogepant 60 mg (n=187) or placebo (n=186).
The proportion of patients with weight decrease ≥7% at any point was 2.8% for placebo, 3.8% for atogepant 10 mg, 3.2% for atogepant 30 mg, and 4.9% for atogepant 60 mg. No patients in either study discontinued atogepant due to decreased weight.

## C[C@@H]1[C@H](c2c(F)ccc(F)c2F)C[C@H](NC(=O)c2cnc3c(c2)C[C@@]2(C3)C(=O)Nc3ncccc32)C(=O)N1CC(F)(F)F [atogepant]
[1]; 10 mg QD
  Deaths, n (%): (0.0) %
  TEAE Constipation, n (%): (7.7) %
  TEAE Fatigue, n (%): (1.4) %
  TEAE Gastroenteritis, n (%): (0.9) %
  TEAE Influenza, n (%): (1.4) %
  TEAE Nasopharyngitis, n (%): (1.8) %
  TEAE Nausea, n (%): (5.0) %
  TEAE Sinus Congestion, n (%): (0.5) %
  TEAE Sinusitis, n (%): (1.8) %
  TEAE Somnolence, n (%): (3.2) %
  TEAE Upper Respiratory Tract Infection, n (%): (4.1) %
  TEAE Urinary Tract Infection, n (%): (1.4) %
[1]; 30 mg QD
  Deaths, n (%): (0.0) %
  TEAE Constipation, n (%): (7.0) %
  TEAE Fatigue, n (%): (3.1) %
  TEAE Gastroenteritis, n (%): (2.2) %
  TEAE Influenza, n (%): (0.9) %
  TEAE Nasopharyngitis, n (%): (3.5) %
  TEAE Nausea, n (%): (4.4) %
  TEAE Sinus Congestion, n (%): (0.9) %
  TEAE Sinusitis, n (%): (1.3) %
  TEAE Somnolence, n (%): (1.8) %
  TEAE Upper Respiratory Tract Infection, n (%): (5.7) %
  TEAE Urinary Tract Infection, n (%): (3.9) %
[1]; 60 mg QD
  Deaths, n (%): (0.0) %
  TEAE Constipation, n (%): (6.9) %
  TEAE Fatigue, n (%): (3.9) %
  TEAE Gastroenteritis, n (%): (1.3) %
  TEAE Influenza, n (%): (2.2) %
  TEAE Nasopharyngitis, n (%): (3.5) %
  TEAE Nausea, n (%): (6.1) %
  TEAE Sinus Congestion, n (%): (1.7) %
  TEAE Sinusitis, n (%): (2.2) %
  TEAE Somnolence, n (%): (1.7) %
  TEAE Upper Respiratory Tract Infection, n (%): (3.9) %
  TEAE Urinary Tract Infection, n (%): (3.9) %
[1]; human, in vivo, 12 weeks
  cases of constipation mild in severity: 71.4%
  cases of constipation moderate in severity: 26.5%
  cases of nausea mild in severity: 77.1%
  cases of nausea moderate in severity: 22.9%
  frequency of upper respiratory tract infection: 3.9-5.7%
ALT or AST; 10 mg QD
  ALT or AST >=1 * ULN, n/N1 (%): (8.6) %
  ALT or AST >=1.5 * ULN, n/N1 (%): (1.4) %
  ALT or AST >=2 * ULN, n/N1 (%): (0.9) %
  ALT or AST >=5 * ULN, n/N1 (%): (0.5) %
  ALT or AST >=10 * ULN, n/N1 (%): (0.5) %
  ALT or AST >=20 * ULN, n/N1: 0
  Potential Hy's Law (ALT or AST >= 3 * ULN AND Bilirubin Total >= 2 * ULN AND ALP < 2 * ULN), n/N1: 0
ALT or AST; 30 mg QD
  ALT or AST >=1 * ULN, n/N1 (%): (8.0) %
  ALT or AST >=1.5 * ULN, n/N1 (%): (3.1) %
  ALT or AST >=2 * ULN, n/N1 (%): (0.9) %
  ALT or AST >=5 * ULN, n/N1 (%): (0.4) %
  ALT or AST >=10 * ULN, n/N1 (%): 0%
  ALT or AST >=20 * ULN, n/N1: 0
  Potential Hy's Law (ALT or AST >= 3 * ULN AND Bilirubin Total >= 2 * ULN AND ALP < 2 * ULN), n/N1: 0
ALT or AST; 60 mg QD
  ALT or AST >=1 * ULN, n/N1 (%): (12.3) %
  ALT or AST >=1.5 * ULN, n/N1 (%): (3.1) %
  ALT or AST >=2 * ULN, n/N1 (%): (1.8) %
  ALT or AST >=5 * ULN, n/N1 (%): (0.4) %
  ALT or AST >=10 * ULN, n/N1 (%): 0%
  ALT or AST >=20 * ULN, n/N1: 0
  Potential Hy's Law (ALT or AST >= 3 * ULN AND Bilirubin Total >= 2 * ULN AND ALP < 2 * ULN), n/N1: 0
[2]
  TEAE Weight decreased: 5 (0.4%) n (%)
